In paper PMC11459923, “Identification of novel and potent inhibitors of SARS-CoV-2 main protease from DNA-encoded chemical libraries” (Antimicrobial Agents and Chemotherapy, 2024):
Read-outs that look alike come from different tables or passages of the source.

How the values were obtained:
M^pro = conditions: read-out: IC50 M^pro; cited from earlier work
in vitro [1] = conditions: human, Caco-2
SARS-CoV-2 = test: microbe, parasite or virus in culture; assay type: cell-based
SARS-CoV-2 M^pro [2] = biological target: T1, SARS-CoV-2 M^pro (Severe acute respiratory syndrome coronavirus 2, UniProt P0DTD1); test: In vitro FRET enzymatic assay (screening at 1 µM and SAR IC50); assay type: biochemical; conditions: read-out: IC50 ± SEM
SARS-CoV-2 M^pro [3] = biological target: T1, SARS-CoV-2 M^pro; test: Mpro protease activity assay (FRET, used for Table 1); assay type: biochemical
human cathepsin S = biological target: T2, human cathepsin S (Homo sapiens, UniProt P25774); test: Counter assay screening, SensoLyte 440 cathepsin S kit; assay type: biochemical; conditions: for Inhibitory activity against human Cathepsin S: concentrations 50 to 0.00085 µM; for IC50: tested up to 50 µM
T2 construct: purchased Anaspec, Inc. SensoLyte 440 cathepsin S Assay Kit (catalogue number not given)

[4] = biological target: avi-tagged SARS-CoV-2 M^pro (Severe acute respiratory syndrome coronavirus 2, UniProt P0DTD1); assay type: binding
[5] = human; for Metabolic stability: microsomes
[6] = mouse; for Metabolic stability: microsomes
in vitro [7] = conditions: mouse, microsomes
in vitro [8] = conditions: human, microsomes
[9] = 75 nM M^pro, 10 µM substrate, 11-point series from 50 µM

T2 sequence (P25774 115-331): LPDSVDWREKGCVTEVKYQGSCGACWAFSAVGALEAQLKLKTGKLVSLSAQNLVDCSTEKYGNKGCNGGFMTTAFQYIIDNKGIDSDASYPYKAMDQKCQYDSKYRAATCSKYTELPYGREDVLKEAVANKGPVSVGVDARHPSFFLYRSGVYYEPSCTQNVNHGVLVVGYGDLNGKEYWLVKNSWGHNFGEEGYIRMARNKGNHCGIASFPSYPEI

Row | Compound | IC50 (SARS-CoV-2 M^pro [3]; [9]) [µM] | IC50 M^pro (SARS-CoV-2 M^pro [3]; off-DNA synthesized DECL hits) | Inhibitory activity against human Cathepsin S (human cathepsin S) | IC50 (human cathepsin S) [µM] | Enrichment score M^pro [4] | Enrichment score M^pro +GC376 [4] | other results
1 | CC(C)C[C@H](NC(=O)OCc1ccccc1)C(=O)N[C@@H](CC1CCNC1=O)C(O)S(=O)(=O)O (stereo partly drawn) [GC376] |  |  |  |  |  |  | IC50 (M^pro): 0.15 µM
2 | N#Cc1cc(C(=O)N[C@H](CC2CCC2)C(=O)N[C@H](CC(=O)N[C@H](Cc2ccncc2)C(=O)O)Cc2c[nH]c3ccccc23)ccn1 [MP1] |  |  |  |  |  |  | Papp A→B (in vitro [1]): 5.4 ×10⁻⁶ cm/s; Papp B→A (in vitro [1]): 2.5 ×10⁻⁶ cm/s; Protective effect on infected Calu-3 (CPE) (SARS-CoV-2): no protective effect; EC50 (SARS-CoV-2; Severe acute respiratory syndrome coronavirus 2, Calu-3, 48 h, read-out: EC50 inhibition of CPE development): 2.3 µM
3 | CCCC[C@@H](NC(=O)c1ccnc(C#N)c1)C(=O)N[C@H](CC(=O)N[C@H](Cc1ccncc1)C(=O)O)Cc1c[nH]c2ccccc12 [MP9] |  |  |  |  |  |  | IC50 (SARS-CoV-2 M^pro [2]): 0.139 ± 0.049 µM
4 | CCCCC(NC(=O)CC(Cc1c[nH]c2ccccc12)NC(=O)C(Cc1ccccc1)NC(=O)c1ccnc(C#N)c1)C(=O)NC (stereo not drawn) [SLL07] | 0.14 | low nanomolar range | no inhibitory activity | > 50 | 135,654 | 0 | 
5 | CNC(=O)[C@@H](CSCNC(C)=O)NC(=O)c1ccc2cncc(-c3ccc(Oc4ccccc4)nc3)c2n1 [SLL08] | > 50 |  | no inhibitory activity | > 50 | 11,444 | 676 | 
6 | CNC(=O)C(Cc1ccncc1)NC(=O)CC(Cc1c[nH]c2ccccc12)NC(=O)C(CC1CCC1)NC(=O)c1ccnc(C#N)c1 (stereo not drawn) [SLL11] | 0.03 | low nanomolar range | no inhibitory activity | > 50 | 515,485 | 206,982 | In vitro half time [5]: 10 min; Metabolic stability [5]: low metabolic stability; IC50 (SARS-CoV-2 M^pro [3]; off-DNA synthesized DECL hits): ≤ 0.03 µM; In vitro half time [6]: 9 min; Metabolic stability [6]: low metabolic stability; microsomal CLint (in vitro [7]): 154 µL/min/mg; microsomal CLint (in vitro [8]): 139 µL/min/mg
7 | CCCC[C@@H](NC(=O)c1ccnc(C#N)c1)C(=O)N[C@H](CC(=O)N[C@H](Cc1ccncc1)C(=O)NC)Cc1c[nH]c2ccccc12 [SLL12] | 0.053 | low nanomolar range | no inhibitory activity | > 50 | 488,354 | 0 | In vitro half time [5]: 11 min; Metabolic stability [5]: low metabolic stability; In vitro half time [6]: 8 min; Metabolic stability [6]: low metabolic stability; microsomal CLint (in vitro [7]): 170 µL/min/mg; microsomal CLint (in vitro [8]): 131 µL/min/mg
